Legend:
Type in all cases: cell-based, murine
[1] = tested on: COX-2 expression; assay: COX-2 immunoblot (Western blot) in RAW 264.7 cells
Experimental: (§1) Cell culture—RAW 264.7 cells (a murine macrophage-like cell line, ATCC TIB-71), 293T cells (a human embryonic kidney cell line, provided by Sam Lee, Beth Israel Hospital. Boston, Mass.), and HT-29 cells (a human colon adenocarcinoma cell line, ATCC HTB-38) were cultured in Dulbecco's modified Eagle's medium (DMEM) containing 10% (v/v) heat-inactivated fetal bovine serum (FBS, Intergen) and 100 units/ml Penicillin and […] Streptomycin (GIBCO-BRL) at 37° C. in a 5% CO2/air environment. Cells (2×10^6) were plated in 60-mm dishes and cultured for an additional 18 hours to allow the number of cells to approximately double. Cells were maintained in serum-poor (0.25% FBS) medium for another 18 hours prior to the treatment with indicated reagents.
Preparation of fatty acids-albumin complexes—All fatty acids were solubilized in ethanol, and then combined with fatty acid-free and low-endotoxin BSA at a molar ratio of 10:1 (fatty acid: albumin) in serum-poor medium (0.25% FBS). Fatty acids-albumin complex solution was freshly prepared prior to each experiment.
Sodium dodecyl sulfate-polyacrylamide gel electrophoresis (SDS-PAGE) and immunoblotting—These procedures were performed as previously described in D. Hwang et al., “Expression of mitogen-inducible cyclooxygenase induced by lipopolysaccharide: mediation through both mitogen-activated protein kinase and NF-kappaB signaling pathways in macrophages,” Biochem. Pharmacol., vol. 54, pp. 87-96 (1997). Briefly, solubilized proteins were subjected to 8% SDS-PAGE for COX-2, iNOS, IL- 1α and GAPDH immunoblot analyses. Following electrophoresis, the gel was transferred to a PVDF membrane and the membrane was blocked to prevent non-specific binding of antibodies in TBS-T [20 mM Tris HCl, 137 mM NaCl, 0.05% (v/v) Tween 20, pH 7.6] containing 5% non-fat dried milk (Carnation). Immunoblotting was performed using respective polyclonal antibodies followed by incubation with anti-rabbit IgG coupled to horseradish peroxidase. The membrane was exposed on an X-ray film (Kodak) using ECL western blot detection reagents (Amersham).
(§2) After 11 h, cell lysates were analyzed by COX-2, iNOS, IL-1α, or GAPDH immunoblot using a Western blot analysis.
The cell lysates were analyzed by COX-2 or GAPDH immunoblot.
(§3) RAW 264.7 cells were pretested with various concentrations (5, 10, 20, and 50 μM) of docosahexaenoic acid (C22:6n-3) for 3 hours, and then stimulated with LPS (100 ng/ml) for 8 hours and analyzed by COX-2, iNOS, IL-1 a or GAPDH immunoblot.
Cells stably transfected with NFκB(5×) or COX-2 promoter reporter genes were pretreated with various concentrations of each fatty acid for 3 hrs. Cells were then treated with LPS (200 ng/ml). After 8 hrs, cell lysates were prepared and luciferase activities were determined. Data are expressed as a percentage of LPS treatment alone. The results for NFκB and COX-2 expression are given in FIGS. 8A and 8B, respectively. The values are mean±SEM (n=3) of RLA, relative luciferase activity. In FIG. 8C, the cells were pretreated with DHA (20 μM) or C12:0 (75 μM) for 3 hrs and further stimulated with LPS (200 ng/ml for DHA; 1 ng/ml for C12:0). After 8 hr, cell lysates were analyzed by COX-2 and actin immunoblotting.

[2] = tested on: iNOS expression; assay: iNOS immunoblot in RAW 264.7 cells; conditions: lauric acid 1, 10, 50, 100 μM with BSA, 11 h
Experimental: as §1
Preparation of fatty acids-albumin complexes—All fatty acids were solubilized in ethanol, and then combined with fatty acid-free and low-endotoxin BSA at a molar ratio of 10:1 (fatty acid: albumin) in serum-poor medium (0.25% FBS). […]
as §2, §3

[3] = tested on: COX-2 promoter; assay: COX-2 promoter luciferase reporter, stably transfected RAW 264.7 cells, TLR agonist-induced; conditions: pretreated 3 hrs
Experimental: Preparation of stably transfected cells with luciferase reporter plasmids. RAW 264.7 cells (1×10^6 cells) were plated in 100 mm dish and transfected with murine COX-2 promoter (−3.2 kb) luciferase plasmid using Superfect Transfection reagent (Qiagen) according to the manufacturer's instruction. pcDNA3/neo was co-transfected to select transfected cells using the antibiotic. After 48 hrs of stabilization, the new media containing Geneticin (500 μg/ml) was added and changed for appropriate time periods. Two weeks later, the colonies that survived were selected and propagated under Geneticin. After another two weeks of antibiotic selection, the luciferase activities were determined for each colony after treatment with LPS (100 ng/ml).
These stably transfected cell lines eliminated the necessity of transfecting plasmids for the reporter gene and the internal control. Thus, inhibitory or stimulatory effects of various fatty acids on agonist-induced TLR activation were quantitatively determined in a high throughput mode using 96 well plates. […] Therefore, NFκB activation and COX-2 expression was used as readouts for agonist-induced TLR activation, and its suppression or potentiation by fatty acids in this experiment. […]
(FIG. 10A). […] After 8 hrs, luciferase activities were determined. Data are expressed as a percentage of PamCAG treatment alone.

CCCCCCCCCCCC(=O)O [lauric acid]
effect on LPS-induced COX-2 expression (immunoblot) ([1]; DHA 20 μM or C12:0 75 μM 3 hrs, LPS 200 ng/ml for DHA, 1 ng/ml for C12:0, 8 hr): potentiated
COX-2 expression induced by fatty acid (immunoblot) ([1]; RAW 264.7, lauric acid 1, 10, 50, 100 μM with BSA, 11 h): induced
iNOS expression induced by fatty acid (immunoblot) [2]: induced
effect on LPS-induced COX-2 expression (reporter gene) ([3]; LPS 200 ng/ml 8 hrs): potentiated
effect on PamCAG-induced COX-2 expression ([3]; PamCAG 500 ng/ml 8 hrs): potentiated
